Measurements published in EP4700022A1, “CYP11A1 INHIBITORS AND USE THEREOF” (Xizang Haisco Pharmaceutical Co., Ltd., priority 2023, dated 2024).
One block for each compound: values may come before it.

How the values were obtained:
[1] = test system: testosterone level in NCI-H295R cells; experiment: cells; type: cell-based; conditions: Homo sapiens, 72 h; for inhibition at 0.1 µM: read-out: Testosterone level in H295R (Elisa) inh.% 100 nM; for inhibition at 1 µM: read-out: Testosterone level in H295R (Elisa) inh.% 1000 nM; for IC50: read-out: IC50/nM
Procedure: 1. The purpose of the experimental study was intended to detect the testosterone level in the NCI-H295R cells by adopting the Enzyme linked immunosorbent assay (ELISA), so as to evaluate the inhibitory effects of the compounds on the testosterone level in the NCI-H295R cells. The H295R cells were purchased from ATCC, the cell complete medium contained DMEM: F12+ 10% FBS +0.00625 mg/ml insulin +0.00625 mg/ml transferrin+6.25 ng/ml selenium +1.25 mg/ml BSA+0.00535 mg/ml linoleic acid, and the cells were cultured in a 37°C, 5% CO2 incubator. The cells in the exponential growth phase were collected, and cultured in a cytokine-free medium (phenol red 1640-free +1% PS+10% css FBS+1.25 mg/ml BSA +0.00625 mg/ml insulin + 0.00625 mg/ml transferrin+6.25 ng/ml selenium+0.00535 mg/ml linoleic acid) for 3 days. The cells in the exponential growth phase were collected on the third day. The cell suspension was adjusted with a cytokine-free medium to a corresponding concentration and plated at 60000 cells/well, with the volume being 90 µL/well. Subsequently, 10 µL of the compounds at different concentrations was added and the plate was incubated in a CO2 incubator for 3 days. After the incubation was completed, according to the operation instructions for testosterone Elisa kit (Beyotime, PT872), 50 µL of the cell culture supernatant was collected from each well and centrifuged at 500 g for 5 min at room temperature and then the resulting supernatant was collected. The samples were added to the corresponding wells at 25 µl/well, and then formulated horseradish peroxidase labeled testosterone was added at 75 µl/well. The mixture was fully mixed for 10 seconds. The reaction wells were sealed with a plate-sealing film (white) and the mixture was incubated at room temperature in the dark for 120 min. The plate was washed 3 times with a volume of 300 µl per well, and then placed onto thick absorbent paper and dried. Chromogenic reagent TMB solution was added at 100 µl/well. The reaction wells were sealed with a plate-sealing film (white) and the mixture was incubated at room temperature in the dark for 15-20 min. Subsequently, a termination solution was added at 50 µl/well, and after the mixture was fully mixed, the absorbance value OD450 was immediately measured. The absorbance readings were processed using Graphpad Prim 8.0 software and S-shaped concentration curves were plotted and the IC50 values were calculated using a four-parameter non-linear regression model. The results were processed according to formula (1), the inhibition rate of the compound at different concentrations was calculated, and the IC50 value of the compound with an inhibition rate of 50% was calculated using Graphpad Prim 8.0 software, wherein RLU compound was the readout of the treated group, and RLU control was the average value of the solvent control group. Inhibition rate% = 100-RLUcompound /RLUcontrol × 100 [formula] Table 1. Inhibitory activity on testosterone level in NCI-H295R cells

[2] = Pharmacokinetic test in mice; type: in vivo; conditions: mouse, male ICR mice, plasma; for Vd: read-out: Vdss
Procedure: 4.1. Experimental animals: Male ICR mice, 20-25 g, 6 mice/compound, purchased from Chengdu Dossy Experimental Animals Co., Ltd.
4.2 Experimental design: on the day of the experiment, the ICR mice were randomly grouped according to their body weights. […] Table 5. Administration information
vehicle for intravenous administration: 5% DMA+5% HS-15+90% NS; vehicle for intragastric administration: 0.5% MC
Before and after administration, 0.06 mL of blood was taken from the orbit under isoflurane anesthesia and placed in an EDTAK2 centrifuge tube. The tube was centrifuged at 5000 rpm at 4°C for 10 min, and plasma was collected. […] Before analysis and detection, all samples were stored at -80°C, and the samples were quantitatively analyzed by LC-MS/MS. Table 6. Pharmacokinetic parameters of test compounds in plasma of mice

[3] = Pharmacokinetic test in rats; type: in vivo; conditions: rat, male SD rats, plasma; for Vd: read-out: Vdss
Procedure: 3.1 Experimental animals: Male SD rats (about 220 g, 6-8 weeks old, 6 rats/compound), purchased from Chengdu Dossy Experimental Animals Co., Ltd.
3.2 Experimental design: On the day of the experiment, the SD rats were randomly grouped by body weight. […] Table 3. Administration information
Before and after the administration, 0.1 ml of blood was taken from the orbit of the animals under isoflurane anesthesia and placed in an EDTAK2 centrifuge tube. The blood was centrifuged at 5000 rpm and 4°C for 10 min to collect plasma. […] Before analysis and detection, all samples were stored at -80°C. Table 4. Pharmacokinetic parameters of test compounds in plasma of rats

[4] = po, intragastric administration (10 mg/kg)
[5] = intravenous administration (2.5 mg/kg)

Compound: CS(=O)(=O)N1CCC(COc2ccc(CN3Cc4ccccc4C3)c3cccnc23)CC1 [Compound 4]
inhibition at 0.1 µM [1]: 81.5%
inhibition at 1 µM [1]: 89.2%

IC50 [1]: 81.9 nM
Compound: CS(=O)(=O)N1CCC(CCOc2cc(CN3Cc4ccccc4C3)ccn2)CC1 [Compound 10]
inhibition at 1 µM [1]: 85.4%

Compound: CS(=O)(=O)N1CCC(CCn2ccc(CN3Cc4ccc(C5CC5)cc4C3)cc2=O)CC1 [Compound 16]
inhibition at 0.1 µM [1]: 51.7%
inhibition at 1 µM [1]: 89.4%

IC50 [1]: 35.3 nM
Compound: CS(=O)(=O)N1CCC(c2cc3oc(CN4Cc5ccc(C(F)(F)F)cc5C4)cc(=O)c3o2)CC1 [Compound 30]
inhibition at 0.1 µM [1]: 59.1%
inhibition at 1 µM [1]: 80.9%

Compound: O=C(OC1CC1)N1CCC(COc2ccc(CN3Cc4ccc(C(F)(F)F)cc4C3)c3ccc(F)nc23)CC1 [Compound 36]
inhibition at 0.1 µM [1]: 56.8%
inhibition at 1 µM [1]: 62%

Compound: CS(=O)(=O)N1CC(OC(=O)N2CCC(COc3ccc(CN4Cc5ccc(C(F)(F)F)cc5C4)c4c3OCCO4)CC2)C1 [Compound 37]
inhibition at 0.1 µM [1]: 87.1%
inhibition at 1 µM [1]: 77%

Compound: CS(=O)(=O)N1CC(OC(=O)N2CCC3(CC2)CC(Oc2cc(CN4Cc5ccc(C(F)(F)F)cc5C4)ccn2)C3)C1 [Compound 38]
inhibition at 0.1 µM [1]: 68.2%
inhibition at 1 µM [1]: 81%
AUC(0-t) [2, 4]: 13500 ng·h/mL
half-life [2, 4]: 3.65 h
AUC(0-t) [2, 5]: 4360 ng·h/mL
clearance [2, 5]: 9.45 mL/min/kg
half-life [2, 5]: 4.11 h
Vd [2, 5]: 2.78 L/kg

Compound: CS(=O)(=O)N1CC(OC(=O)N2CCC(COc3ccc(CN4Cc5ccc(C(F)(F)F)cc5C4)c4c3S(=O)(=O)CC4)CC2)C1 [Compound 39]
inhibition at 0.1 µM [1]: 55.8%
inhibition at 1 µM [1]: 74.6%

Compound: O=C(OC1CC1)N1CCC(CCOc2cc(CN3Cc4ccc(C(F)(F)F)cc4C3)ccn2)CC1 [Compound 40]
IC50 [1]: 77 nM
AUC(0-t) [3, 4]: 4210 ng·h/mL
half-life [3, 4]: 11.1 h
AUC(0-t) [3, 5]: 1950 ng·h/mL
clearance [3, 5]: 19.1 mL/min/kg
half-life [3, 5]: 9.77 h
Vd [3, 5]: 9.21 L/kg

Compound: CS(=O)(=O)N1CC(OC(=O)N2CCC(CCOc3cc(CN4Cc5ccsc5C4)ccn3)CC2)C1 [Compound 41]
inhibition at 0.1 µM [1]: 51.5%
inhibition at 1 µM [1]: 67.9%

Compound: O=C(OC1CC1)N1CCC(Cc2cc3oc(CN4Cc5ccc(C(F)(F)F)cc5C4)cc(=O)c3o2)CC1 [Compound 42]
inhibition at 0.1 µM [1]: 76.9%
inhibition at 1 µM [1]: 82.6%

Compound: O=C(OC1CC1)N1CCC(/C=C/c2coc(CN3Cc4cc5c(cc4C3)CCC5)cc2=O)CC1 [Compound 43]
inhibition at 0.1 µM [1]: 75.6%
inhibition at 1 µM [1]: 77.8%

Compound: O=C(OC1CC1)N1CCC2(CC1)CC(Oc1cc(CN3Cc4ccc(C(F)(F)F)cc4C3)ccn1)C2 [Compound 48]
inhibition at 0.1 µM [1]: 77.5%
inhibition at 1 µM [1]: 78.2%

Compound: CS(=O)(=O)N1CC(OC(=O)N2CCC(CCOc3cc(CN4Cc5ccc(C(F)(F)F)cc5C4)ccn3)CC2)C1 [Compound 49]
inhibition at 0.1 µM [1]: 57.7%
inhibition at 1 µM [1]: 65.2%

Compound: CS(=O)(=O)N1CCC(CCOc2cc(CN3Cc4ccc(C5CC5)cc4C3)ccn2)CC1 [Compound 50]
IC50 [1]: 130 nM
inhibition at 0.1 µM [1]: 51.7%
inhibition at 1 µM [1]: 89.4%
AUC(0-t) [2, 4]: 7780 ng·h/mL
half-life [2, 4]: 2.73 h
AUC(0-t) [2, 5]: 2360 ng·h/mL
clearance [2, 5]: 17.3 mL/min/kg
half-life [2, 5]: 3 h
Vd [2, 5]: 3.37 L/kg

Compound: O=C(N[C@H]1CC[C@H](CCOc2cc(CN3Cc4ccc(C(F)(F)F)cc4C3)ccn2)CC1)OC1CC1 [Compound 51]
inhibition at 0.1 µM [1]: 74.4%
inhibition at 1 µM [1]: 78.5%
AUC(0-t) [3, 4]: 13600 ng·h/mL
half-life [3, 4]: 9.63 h
AUC(0-t) [3, 5]: 4000 ng·h/mL
clearance [3, 5]: 9.32 mL/min/kg
half-life [3, 5]: 8.52 h
Vd [3, 5]: 4.58 L/kg

Compound: N#Cc1cc(CN2Cc3ccc(C(F)(F)F)cc3C2)cc2cc(C3CCN(C(=O)OC4CC4)CC3)oc12 [Compound 53]
inhibition at 0.1 µM [1]: 72.5%
inhibition at 1 µM [1]: 85.5%
AUC(0-t) [3, 4]: 6750 ng·h/mL
half-life [3, 4]: 8.13 h
AUC(0-t) [3, 5]: 3110 ng·h/mL
clearance [3, 5]: 11 mL/min/kg
half-life [3, 5]: 13.2 h
Vd [3, 5]: 8.06 L/kg

Compound: COc1cc(CN2Cc3ccc(C(F)(F)F)cc3C2)cc2cc(C3CCN(C(=O)OC4CC4)CC3)oc12 [Compound 54]
inhibition at 0.1 µM [1]: 59.1%
inhibition at 1 µM [1]: 78.4%
AUC(0-t) [3, 4]: 5840 ng·h/mL
half-life [3, 4]: 7.74 h
AUC(0-t) [3, 5]: 3560 ng·h/mL
clearance [3, 5]: 10.3 mL/min/kg
half-life [3, 5]: 10.3 h
Vd [3, 5]: 6.41 L/kg

Compound: O=C(OC1CC1)N1CCC(CCOc2ccnc(CN3Cc4ccc(C(F)(F)F)cc4C3)c2)CC1 [Compound 59]
inhibition at 0.1 µM [1]: 60%
inhibition at 1 µM [1]: 76%

Compound: O=C(N[C@H]1CC[C@H](CCOc2cc(CN3Cc4ccc(C5CC5)cc4C3)ccn2)CC1)C1CC1 [Compound 60]
AUC(0-t) [3, 4]: 27100 ng·h/mL
half-life [3, 4]: 2.36 h
AUC(0-t) [3, 5]: 6080 ng·h/mL
clearance [3, 5]: 6.8 mL/min/kg
half-life [3, 5]: 1.75 h
Vd [3, 5]: 0.951 L/kg

Compound: O=C(N[C@H]1CC[C@H](Cc2cc3oc(CN4Cc5ccc(C(F)(F)F)cc5C4)cc(=O)c3o2)CC1)C1CC1 [Compound 66]
inhibition at 0.1 µM [1]: 54.8%
inhibition at 1 µM [1]: 76.7%

Compound: [2H]C([2H])([2H])C(=O)N[C@H]1CC[C@H](Cc2cc3oc(CN4Cc5ccc(C(F)(F)F)cc5C4)cc(=O)c3o2)CC1 [Compound 67]
inhibition at 0.1 µM [1]: 52%
inhibition at 1 µM [1]: 72%

Compound: N#Cc1cc(CN2Cc3ccc(C(F)(F)F)cc3C2)cc2cc([C@H]3CC[C@H](NC(=O)C4CC4)CC3)oc12 [Compound 69]
inhibition at 0.1 µM [1]: 79%
inhibition at 1 µM [1]: 80%

Compound: O=C(N[C@H]1CC[C@H](CCOc2cc(CN3Cc4ccc(C(F)(F)F)cc4C3)ccn2)CC1)[C@H]1CC1(F)F [Compound 70]
inhibition at 0.1 µM [1]: 68.9%
inhibition at 1 µM [1]: 76.3%

Compound: O=C(N[C@H]1CC[C@H](c2cc3oc(CN4Cc5ccc(C(F)(F)F)cc5C4)cc(=O)c3o2)CC1)C1CC(F)(F)C1 [Compound 72]
inhibition at 0.1 µM [1]: 81%
inhibition at 1 µM [1]: 88%

Compound: COc1nc(CN2Cc3ccc(C(F)(F)F)cc3C2)ccc1OCC1CCN(C(=O)C2CC(F)(F)C2)CC1 [Compound 75]
inhibition at 0.1 µM [1]: 76.2%
inhibition at 1 µM [1]: 90.4%

Compound: O=C(CC(F)(F)F)N[C@H]1CC[C@H](CCOc2cc(CN3Cc4ccc(C(F)(F)F)cc4C3)ccn2)CC1 [Compound 76]
inhibition at 0.1 µM [1]: 70%
inhibition at 1 µM [1]: 78%

Compound: CS(=O)(=O)N1CCC(C2=COc3cc(CN4Cc5ccc(C(F)(F)F)cc5C4)ccc3O2)CC1 [Compound 84]
IC50 [1]: 38 nM
inhibition at 0.1 µM [1]: 74%
inhibition at 1 µM [1]: 83%
